Source: US12631620B2, “Methods of generating organoids for high throughput screening of drugs” (Yissum Research Development Company of the Hebrew …, priority 2019, dated 2026)

How the values were obtained:
HepG2/C3A organoids = test: Neutral lipid and phospholipid staining of HepG2/C3A organoids on chip; format: cell-based, human; details: p<0.001, n=9
[1] = tested on: E6/E7^LOW human hepatocytes; test: Bile secretion, CDFDA staining; format: cell-based; details: p<0.05, n=4
Procedure: (§1) Quantification of Apoptotic index was performed using DeadEnd™ fluorometric TUNEL System (Promega) according to manufacturer directions. Briefly, cells were treated with TC20 concentrations of compounds dissolved in culture medium for 24 hours, and subsequently fixed in 4% Paraformaldehyde (PFA). Cells were then permeabilized and exposed to fluorescein-12-dUTP and terminal deoxynucleotidyl transferase (TdT). The reaction was subsequently stopped and the cells counterstained with 1 μg/mL Hoechst 33258. Apoptotic cells were positive for green fluorescence in the nucleus. Percentage apoptosis was defined as the number of TUNEL positive nuclei normalized to Hoechst 33258 positive nuclei. Quantification of Steatosis was performed using HCS LipidTOX™ Phospholipidosis and Steatosis Detection Kit (ThermoFisher). […] Quantification of Bile Secretion was performed using 5(6)-carboxy-2′,7′-dichlorofluorescein diacetate (CDFDA) staining. […] All quantifications were made in comparison to cells treated with melatonin as negative control.
Quantification of Apoptotic index was performed using DeadEnd™ fluorometric TUNEL System (Promega) according to manufacturer directions. […] Apoptotic cells were positive for green fluorescence in the nucleus. […] Quantification of Steatosis was performed using HCS LipidTOX™ Phospholipidosis and Steatosis Detection Kit (ThermoFisher). […]

[2] = tested on: E6/E7^LOW human hepatocytes; test: Steatosis and phospholipidosis, HCS LipidTOX detection kit, hepatocyte cultures; format: cell-based
Procedure: Quantification of Apoptotic index was performed using DeadEnd™ fluorometric TUNEL System (Promega) according to manufacturer directions. Briefly, cells were treated with TC20 concentrations of compounds dissolved in culture medium for 24 hours, and subsequently fixed in 4% Paraformaldehyde (PFA). Cells were then permeabilized and exposed to fluorescein-12-dUTP and terminal deoxynucleotidyl transferase (TdT). The reaction was subsequently stopped and the cells counterstained with 1 μg/mL Hoechst 33258. Apoptotic cells were positive for green fluorescence in the nucleus. Percentage apoptosis was defined as the number of TUNEL positive nuclei normalized to Hoechst 33258 positive nuclei. Quantification of Steatosis was performed using HCS LipidTOX™ Phospholipidosis and Steatosis Detection Kit (ThermoFisher). Briefly, differentiated cells were incubated with different concentrations of compounds dissolved in culture medium and 1× Phospholipidosis Detection Reagent for 48 hours, subsequently fixed in 4% PFA. Cells were then stained with 1× LipidTOX™ for 20 minutes and counterstained with 1 μg/mL Hoechst 33258. Staining intensity was normalized to number of Hoechst 33258 positive nuclei. Quantification of Bile Secretion was performed using 5(6)-carboxy-2′,7′-dichlorofluorescein diacetate (CDFDA) staining. Briefly, differentiated cells were incubated with different concentrations of compounds dissolved in culture medium for 24 hours. Cells were then treated with 10 μg/mL CDFDA and 1 μg/mL Hoechst 33342 for 30 minutes. Incubation medium was removed and cultures washed with ice-cold PBS containing calcium and magnesium. Staining intensity was normalized to number of Hoechst 33342 positive nuclei. Analysis excluded Intracellular CDFDA staining based on intensity and phase images. All quantifications were made in comparison to cells treated with melatonin as negative control.
as §1, with “Cell” for “Cells”, “Percentage apoptosis was defined as the number of TUNEL positive nuclei normalized to Hoechst 33258 positive nuclei.” left out

With `Cc1cn([C@H]2C=C[C@@H](CO)O2)c(=O)[nH]c1=O` [Stavudine] the “increase in the amount of intracellular lipids” value (HepG2/C3A organoids) was 3 fold, the bile secretion [1] was “mild inhibition” and the phospholipidosis [2] was “not”. For the same molecule, the neutral lipids ([2]; p<0.001, n=4) was “strong and significant increase”.
